Series [1] concerns Bfu-e. Description: Erythroid colony (Bfu-e) proliferation with maximal growth factors, normal subject. It counts as cell-based, human. To be noted: 0.2-0.5 mM where given. The source says: Erythroid cells were obtained, as described in Example 1, from a normal subject and cultured on semi-solid medium in the presence of a maximal amount of erythroid growth factors including IL-6, GM-CSF, SCF and EPO. Erythroid proliferation in the presence of these factors is expected to be maximal and, therefore, any increases observed would be significant.

The subject of series [2] is human fetal liver cells. Description: Erythroid progenitor colony proliferation, fetal liver cells. It counts as cell-based. To be noted: 0.2 mM, maximal growth factors, p<0.025. On the procedure:
In a third experiment, human fetal liver cells were also tested. As fetal cells are known not to respond to the presence of the growth factors, any increases observed are highly significant. Erythroid progenitor cultures were established from fetal liver and plated with maximal amounts of growth factors. To these plates were added; lane 1, 2-(4′-methoxyphenoxy) propionic acid; lane 2, phenoxyacetic acid; and lane 3, α-methylhydrocinnamic acid; all at a concentration of 0.2 mM.

The subject of series [3] is system A transport of amino acids. In words: Uptake of 3H-methyl-aminoisobutyric acid (MeAIB) into erythroblasts. It counts as cell-based. Particulars: for amino acid (MeAIB) uptake / transport: 2.0 mM, relative to untreated fetal liver erythroid cells. On the procedure: Erythroblasts were tested for alterations in uptake of radio-labelled amino acid (^3H-methyl-aminoisobutyric acid; MeAIB) in the presence of AB (arginine butyrate), AMHCA (α-methylhydrocinnamic acid), PAA (phenoxyacetic acid), and IBT (isobutyramide), each at 2.0 mM.

Series [4] concerns γ globin mRNA. Particulars: continuous intravenous administration; cited from earlier work.
Series [5] relates to Friend leukemia cells. Particulars: cultured Friend leukemia cells; cited from earlier work.
The nature of series [6]: Continuous butyrate therapy in a child with beta thalassemia. It counts as in vivo, human. The source says: Treatment period, the ten month duration of butyrate therapy, is shown between the vertical lines.
Series [7] is described as follows: Weekly then pulse butyrate in a patient with β° thalassemia. The class given is in vivo, human. On the procedure: A plateau or even a decline in hematologic response has been commonly observed when butyrate therapy is given continuously. This is illustrated in a patient with β° thalassemia, who responded to weekly butyrate treatment with an increase in fetal globin synthesis and improved globin chain balance from 0.5 to 0.85 non-α to α-globin chain ratios (FIG. 8). A 3-fold increase in γ globin mRNA was detected 24-36 hours after therapy. A 1-1.5 gram/dl rise in total hemoglobin followed the increase in […] synthesis and mRNA, but total Hgb then plateaued and even declined slightly (solid line). A decline in ferritin is also frequently observed (lower panel), even though the patient received single daily supplements.
When therapy was decreased to shorter pulses for 2-3 days on alternate weeks, total hemoglobin rose another 2 grams/dl. Increased iron supplements were required to support the active erythropoiesis, despite the presence of iron overload.
The therapeutic rise in total hemoglobin plateaued or declined on weekly therapy. With a change to pulse therapy, shown by the curved arrow, there was a further rise in total Hgb to 9.6 gm/dl, a level that no longer requires transfusions.
A three fold increase in γ globin mRNA was detected 24 to 36 hours after therapy.
A 1.0 to 1.5 gram per deciliter rise in total hemoglobin followed the increase in γ globin mRNA synthesis for 30 to 50 days, but total Hgb plateaued and even declined slightly (FIG. 8). A decline in ferritin was also frequently observed (FIG. 10) even though the patient received single daily supplements.
Increased iron supplements were required to support active erythropoiesis, despite the iron overload (FIG. 10).

A short description of series [8]: Globin chain synthesis at varied butyrate infusion rates in patients. The class given is in vivo, human. Particulars: infusion at 150 mg per kg per hour; baseline 0.6. How it is done:
Infusion rates were varied between 20 to 150 mg per kg per hour in several patients who have large proportions of circulating nucleated erythroblasts. Globin chain synthesis was assayed at different time points before and following drug infusions.

Series [9] in a line: Apoptosis (fragmented DNA stain) of circulating erythroblasts, Hb-E beta thalassemia patient. The class given is in vivo, human. The text has this:
Peripheral blood from a patient with Hb-E beta thalassemia has 1200 NRBCs per 100 white blood cells which allows for rapid monitoring for apoptosis. […] A plateau or even a decline in hematologic response has been observed when butyrate therapy is given continuously.

Series [10] in a line: DNA fragmentation assays (cell viability). The class given is cell-based. The text has this: Normal cell viability, the viability of an untransformed or uninfected cell, can be determined from analyzing the effects of the composition on one or more biological processes of the cell. Detrimental interference with one or more of these cellular processes becomes significant when the process becomes abnormal. Examples of quantitatable and qualifiable biological processes include the processes of cell division, protein synthesis, nucleic acid (DNA or RNA) synthesis, nucleic acid (principally DNA) fragmentation and apoptosis. Others processes include specific enzyme activities, the activities of the cellular transportation systems such as the transportation of amino acids by system A (neutral), system B (acidic) or system C (basic), and the expression of a cell surface protein. […] Abnormal cell division, for example, can be mitosis which occurs too rapidly, as in a malignancy, or unstably, resulting in programmed cell death or apoptosis, detected by increased DNA degradation. The determination of abnormal cell viability can be made on comparison with untreated control cells. Compositions preferably increase normal cell viability. Increased cell viability can be determined by those of ordinary skill in the art using, for example, DNA fragmentation analysis. […] Determinations of increased or decreased viability can also be concluded from an analysis of the results of multiple different assays. Where multiple tests provide conflicting results, accurate conclusions can still be drawn by those of ordinary skill based upon the cell type, the correctness or correlation of the tests with actual conditions and the type of composition.
Patients with blood disorders are typically quite infirm with, for example, iron damaged organs and systems. Most treatments further tax the patient's already frail health in an effort to combat the disorder.

Series [11] in a line: Platelet counts in baboon with pulse administration. To be noted: increased from 240,000. It counts as in vivo.
Series [12] deals with fetal globin. Description: Fetal globin production in erythroid progenitor colonies (Bfu-e), sickle cell anemia patient. To be noted: controls 48% of non-α globin. It counts as cell-based, human.
Series [13] relates to fetal globin. In words: Proportion of fetal globin-expressing cells in culture, fluorescent antibodies, sickle cell patient. The class given is cell-based, human. Particulars: 14 days, controls 40.7%. How it is done:
In a fourth experiment, erythroid cells were obtained from a sickle cell patient. These cells were established in culture both with and without test a variety of test compounds. Cultures were incubated for 14 days in methylcellulose media with maximal concentrations of all hematopoietic growth factors (GM-CSF, SCF, EPO). Colonies were analyzed using fluorescent monoclonal antibodies against fetal globin to determine the proportion of erythroid cells that expressed fetal globin.

The nature of series [14]: Total hemoglobin in phlebotomized anemic baboons, continuous versus pulse therapy. It counts as in vivo, baboon. How it is done:
Therapy was administered to anemic baboons who were being phlebotomized 5-10 ml/kg of blood per day on a continuous basis. EPO was administered daily at 300 U/kg/dose. Arginine butyrate was administered daily at 700 mg/kg/day for 5 days and phenoxyacetic acid at 500 mg/kg/day daily over 8 hours and at 1000 mg/kg/day for 24 hours/day daily for five days each. […] With continuous arginine butyrate treatment, hemoglobin remained essentially stable at 6.7 to 6.9 gram/dl. With continuous treatment with phenoxyacetic acid, hemoglobin levels remained stable at 7.0 gram/dl to 6.9 gram/dl during 8 hour therapy and declined from 6.8 to 4.5 when the drug was given for 24 hours per day for 5 days.

Series [15] relates to K562 human erythroleukemia cells. To be noted: cited from earlier work.

Where two headings read alike, the source gives them in different places.

Consider `COc1ccc(OC(C)C(=O)O)cc1` (stereo not shown) [2-(4′-methoxyphenoxy) propionic acid], for which the Bfu-e growth entry in series [1] is recorded as “further increase Bfu-e growth”. Besides, in series [2], the proliferation of colonies result is “increased proliferation of colonies”. Besides, the “amino acid (MeAIB) uptake / transport” value in [3] is listed as “moderate inhibition of transport”. Moreover, in series [3] (after 60 and 120 minutes), the “inhibition of MeAIB uptake” value was “somewhat less so”.

`Nc1ncn([C@@H]2O[C@H](CO)[C@@H](O)[C@H]2O)c(=O)n1` [AZA, 5-azacytidine]: the “increase in γ globin mRNA of bone marrow cells” value in [4] is reported as “five- to seven-fold”.

In the case of `CC(=O)O` [acetate], in series [5], the hemoglobin synthesis entry was “induced hemoglobin synthesis”.

As to `CCCC(=O)O` [butyrate], in [6] (after 4 months of continuous weekly treatment), the total hemoglobin was 7.5-8.4 gm/dl. For the same compound, the “total hemoglobin, peak” value in series [6] (continuous therapy, baseline 5.6 grams/dl) is 9.9 gm/dl. Moreover, the “total hemoglobin, plateau” value in series [6] (continuous therapy, for 2 months after peak) was 8.0-8.8 gm/dl. Further, the “total Hgb reached” value in [7] (after change to pulse therapy) was 9.6 gm/dl. For the same compound, in [7] (weekly butyrate, improved from 0.5), the “non-α to α-globin chain ratios” value was 0.85. For the same compound, the “rise in total hemoglobin” value in series [7] (weekly butyrate, then plateaued) is 1-1.5 gram/dl. Moreover, the “non-α globin to α globin ratio” value in [8] came to 0.77. In addition, the “apoptosis, red stain of fragmented DNA” value is “red staining of most cells” in series [9] (after high-dose) and “no red-staining erythroblasts are observed” in series [9] (after low-dose pulse therapy).

For `CCCC(=O)OCC` [butyric acid ethyl ester], the “DNA fragmentation in fragmentation assays” value in series [10] is reported as “reduce DNA fragmentation”.

`O=C(O)CCc1ccccc1` [dihydrocinnamic acid]: the “platelet counts after treatment” value in [11] was 767,000.

On to `CC(C)C(N)=O` [isobutyramide], for which the “cell viability in DNA fragmentation assays” value in series [10] is given as “decrease cell viability”.

With `CC(C)C(=O)O` [isobutyrate], in series [5], the hemoglobin synthesis entry was “induced hemoglobin synthesis”.

In the case of `O=C(O)COc1ccccc1` [phenoxyacetic acid], the “increase in fetal globin over controls” value in series [12] is 34%. Also, in series [1], the Bfu-e growth entry is recorded as “further increase Bfu-e growth”. Further, the proliferation of colonies result in series [2] is given as “increased proliferation of colonies”. In addition, the “Increase in γ-Globin Expressing Cells” value in [13] (0.2 mM) was 54.6%. In addition, the “total hemoglobin after treatment” value in series [14] (continuous, 500 mg/kg/day daily over 8 hours, from 7.0) is 6.9 gram/dl; in series [14] (continuous, 1000 mg/kg/day, 24 hours per day for 5 days, declined from 6.8), 4.5; in series [14] (pulse, 2 oral doses per week, 500 mg/kg on days 1 and 4, in one week, from 6.9) it was 7.6 gram/dl. The “system A transport of amino acids” value in series [3] is recorded as “do not significantly alter system A transport of amino acids”. In addition, in series [3], the “amino acid (MeAIB) uptake / transport” value is “did not inhibit amino acid transport”. In addition, the “DNA fragmentation in fragmentation assays” value in series [10] (pulsed administration) is “reduce DNA fragmentation”.

For `CCC(=O)O` [propionate], the hemoglobin synthesis entry in series [5] is “induced hemoglobin synthesis”. The “ability to increase fetal globin expression” value in [15] is on record as “most effective”.

Consider `CC(Cc1ccccc1)C(=O)O` (stereo not drawn) [α-methylhydrocinnamic acid], for which the “increase in fetal globin over controls” value in series [12] came out at 18%. Also, in series [1], the Bfu-e growth result was “further increase Bfu-e growth”. Moreover, the proliferation of colonies entry in series [2] is reported as “increased proliferation of colonies”. Moreover, the “Increase in γ-Globin Expressing Cells” value in series [13] (concentration not given) stood at 64.4%. In addition, in series [3], the “system A transport of amino acids” value was “do not significantly alter system A transport of amino acids” and the “amino acid (MeAIB) uptake / transport” value was “did not inhibit amino acid transport”.
